Tests used:
OCI-AML5 cells = assay: Inhibition of OCI-AML5 cell proliferation (CellTiter-Glo); format: cell-based; details: Homo sapiens, OCI-AML-5; OCI-AML5 cells (SOS1 N233Y mutation), 120 hours
Protocol: The following method was used to determine the influence of the compounds of the present invention on OCI-AML5 cells proliferation. OCI-AML5 cells (containing SOS1 N233Y mutation) were purchased from Nanjing Kebai Biotechnology Co., Ltd. and cultured in MEMα medium containing 10% fetal bovine serum, 100 U penicillin, and 100 μg/mL streptomycin. The activities of the cells were determined by CellTiter-Glo® Luminescent Cell Viability Assay Kit (Promega, Art. No. G7573).
The experimental method was operated according to the steps in the kit instruction, which were briefly described as follows: the test compounds were first dissolved in DMSO to prepare storage solutions of 10 mM, and then diluted with culture mediums to prepare test samples. The final concentrations of the compounds were 10000 nM to 0.15 nM. Cells in logarithmic phase were inoculated in a 96-well cell culture plate with 1,000 cells per well, after cultured overnight in 5% CO2 incubator at 37° C., the test compounds were added to the incubator to continue the culture for 120 hours. After the culture was completed, 50 μL of CellTiter-Glo detection solution was added to each well, shaken for 5 minutes and then stood for 10 minutes. Then, a Luminescence mode was used to read the luminescence values of each well of the samples on a microplate reader.

KRAS-G12C/SOS1 = target: T1, KRAS-G12C/SOS1 (Homo sapiens, UniProt Q07889); assay: Blocking the binding of KRAS G12C protein to SOS1 (Cisbio KRAS-G12C/SOS1 binding assay kit, TR-FRET); details: Tag1-SOS1 and Tag2-KRAS-G12C, TR-FRET 665/620; read-out: IC50 (nM) Inhibition of KRAS-G12C/SOS1 binding
T1 construct: purchased Cisbio 63ADK000CB16PEG
T1 sequence (Q07889 1-1333): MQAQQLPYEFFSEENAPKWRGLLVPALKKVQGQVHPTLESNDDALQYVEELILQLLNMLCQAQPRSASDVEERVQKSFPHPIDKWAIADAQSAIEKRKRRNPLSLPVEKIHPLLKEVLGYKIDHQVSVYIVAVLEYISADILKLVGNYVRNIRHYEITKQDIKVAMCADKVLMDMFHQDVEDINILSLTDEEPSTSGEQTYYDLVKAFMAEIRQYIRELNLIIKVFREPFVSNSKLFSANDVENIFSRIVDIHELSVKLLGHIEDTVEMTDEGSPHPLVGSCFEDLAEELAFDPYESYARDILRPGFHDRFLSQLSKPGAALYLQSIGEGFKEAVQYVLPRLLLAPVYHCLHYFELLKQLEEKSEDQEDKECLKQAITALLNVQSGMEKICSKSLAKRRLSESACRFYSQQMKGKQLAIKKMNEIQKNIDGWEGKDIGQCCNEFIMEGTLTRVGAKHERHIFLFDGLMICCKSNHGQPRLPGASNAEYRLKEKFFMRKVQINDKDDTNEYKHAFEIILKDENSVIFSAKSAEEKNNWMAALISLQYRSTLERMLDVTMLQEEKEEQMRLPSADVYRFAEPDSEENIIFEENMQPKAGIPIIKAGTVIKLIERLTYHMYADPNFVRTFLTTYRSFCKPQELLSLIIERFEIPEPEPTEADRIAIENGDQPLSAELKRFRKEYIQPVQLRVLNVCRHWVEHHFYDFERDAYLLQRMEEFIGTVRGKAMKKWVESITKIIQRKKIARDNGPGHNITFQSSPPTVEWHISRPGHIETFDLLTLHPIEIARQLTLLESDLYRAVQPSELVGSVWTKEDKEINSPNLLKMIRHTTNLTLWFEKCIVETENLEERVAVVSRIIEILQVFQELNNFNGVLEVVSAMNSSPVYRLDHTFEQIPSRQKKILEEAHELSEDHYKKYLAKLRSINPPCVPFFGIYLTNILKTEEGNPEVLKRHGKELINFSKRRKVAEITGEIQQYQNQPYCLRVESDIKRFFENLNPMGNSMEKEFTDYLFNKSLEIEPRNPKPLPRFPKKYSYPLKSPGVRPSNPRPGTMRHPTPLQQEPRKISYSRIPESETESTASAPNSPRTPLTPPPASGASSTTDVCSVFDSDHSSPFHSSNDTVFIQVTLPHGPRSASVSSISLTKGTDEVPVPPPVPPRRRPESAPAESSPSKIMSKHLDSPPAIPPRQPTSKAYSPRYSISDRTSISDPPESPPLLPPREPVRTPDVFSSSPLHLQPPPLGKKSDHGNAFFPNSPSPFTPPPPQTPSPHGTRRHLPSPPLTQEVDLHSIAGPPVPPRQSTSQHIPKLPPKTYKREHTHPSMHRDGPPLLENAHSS
Excerpt: The following method was used to determine the abilities of compounds of the invention to block the interaction of SOS1 with the KRAS G12C protein in vitro. KRAS-G12C/SOS1 BINDING ASSAY KITS (Art. No. 63ADK000CB16PEG) from Cisbio was used in this method. Please refer to the kit instruction for detailed experimental operations.
The experimental process can be briefly described as follows: diluent buffer (Art. No. 62DLBDDF) was used to prepare a working solution with a concentration of 5× for Tag1-SOS1 and Tag2-KRAS-G12C protein. The test compounds were dissolved in DMSO to prepare storage solutions of 10 mM, and then the solutions were diluted with dilution buffer for later use. First, 2 μL of the test compound (the final concentrations of the reaction system were 10000 nM-0.1 nM) was added to the well, then 4 μL of Tag1-SOS1 5× working solution and 4 μL of Tag2-KRAS-G12C 5× working solution were added, and the above mixture was centrifuged, mixed, and stood for 15 minutes; then 10 μL of premixed anti-Tag1-Tb^3+ and anti-Tag2-XL665 were added, and the mixture was incubated at room temperature for 2 hours; finally, a microplate reader was used in […] mode to measure the fluorescence intensity of each well emitting wavelengths of 620 nm and […] under the excitation wavelength of 304 nm, and the fluorescence intensity ratio 665/620 in each well was calculated. Compared with the fluorescence intensity ratio of a control group (0.1% DMSO), the percentage inhibition rates of the test compounds at each concentration were calculated, and the IC50 values of the compounds were obtained by performing nonlinear regression analysis with logarithmic values of the compound concentration-inhibition rate by GraphPad Prism 5 software, which was shown in Table 1.

p-ERK1/2 in DLD-1 cells = assay: Inhibition of p-ERK1/2 in DLD-1 cells (Cisbio Advanced phospho-ERK1/2 kit); format: cell-based; details: Homo sapiens; DLD-1 cells (KRAS G13D mutation), hEGF 5 nM stimulation; read-out: IC50 (nM) Inhibition on p-ERK½ in DLD-1 cells
Excerpt: The following method was used to determine the inhibition activities of the compounds of the present invention on p-ERK1/2 in DLD-1 cells. The Advanced phospho-ERK1/2 (Thr202/tyr2O4) kit (Art. No. 64AERPEH) from Cisbio was used in this method. Please refer to the kit instruction for detailed experimental operations. DLD-1 cells (containing KRAS G13D mutation) were purchased from the Cell Resource Center of Shanghai Institutes for Biological Sciences, Chinese Academy of Sciences.
The experimental process can be briefly described as follows: DLD-1 cells were cultured in RPMI 1640 complete medium containing 10% fetal bovine serum, 100 U penicillin, 100 μg/mL streptomycin and 1 mM Sodium Pyruvate. DLD-1 cells were plated in a 96-well plate at 30,000 cells per well, after cultured overnight in 5% CO2 incubator at 37° C. with complete culture medium. The test compounds were dissolved in DMSO to prepare storage solutions of 10 mM, and then diluted with RPMI 1640 basic mediums. 90 μL of RPMI 1640 basic mediums containing the test compounds at the corresponding concentration were added to each well. The final concentrations of the test compounds in the reaction system were 10,000 nM to 0.15 nM, and were placed in a cell culture incubator for 3 hours and 40 minutes. Subsequently, 10 μL of hEGF (purchased from Roche, Art. No. 11376454001) prepared with RPMI 1640 basic medium was added to a final concentration of 5 nM, and placed in the incubator for culturing for 20 minutes. The cell supernatant was discarded, and the cells were washed with PBS on ice-bath. Then, 45 μl of 1× cell phospho/total protein lysis buffer (component of Advanced phospho-ERK1/2 kit) was added to each well for lysis. The 96-well plate was placed on ice for 0.5 hours to lyse, and then the lysate was detected according to the instruction of the Advanced phospho-ERK1/2 (Thr202/tyr2O4) kit. Finally, the microplate reader was used in […] mode to measure the fluorescence intensity of each well emitting wavelengths of 620 nm and […] under the excitation wavelength of 304 nm, and the fluorescence intensity ratio 665/620 in each well was calculated. By comparing with the fluorescence intensity ratio of a control group (0.1% DMSO), the percentage inhibition rates of the test compounds at each concentration were calculated, and the IC50 values of the compounds were obtained by performing nonlinear regression analysis with logarithmic values of the compound concentration-inhibition rate by GraphPad Prism 5 software, which can be seen in Table 3.

COc1cc2nc(C)nc(N[C@H](C)c3cccc(C#N)c3C)c2cc1N1CCC(N2CCOCC2)CC1 [Compound 6, (R)-3-(1-((7-methoxy-2-methyl-6-(4-morpholinopiperidin-1-yl)quinazolin-4-yl)amino)ethyl)-2-methylbenzonitrile]
IC50 (OCI-AML5 cells): 5.5 nM | IC50 (KRAS-G12C/SOS1): 1.1 nM

COc1cc2nc(C)nc(N[C@H](C)c3cccc(C#N)c3C)c2cc1N1CC2COCC2C1 (stereo partly drawn) [Compound 9, 3-((1R)-1-((7-methoxy-2-methyl-6-(tetrahydro-1H-furo[3,4-c]pyrrol-5(3H)-yl)quinazolin-4-yl)amino)ethyl)-2-methylbenzonitrile]
IC50 (OCI-AML5 cells): 25 nM | IC50 (KRAS-G12C/SOS1): 53.7 nM

COc1cc2nc(C)nc(N[C@H](C)c3cccc(C#N)c3C)c2cc1N1CCN(C)CC1 [Compound 10, (R)-3-(1-((7-methoxy-2-methyl-6-(4-methylpiperazin-1-yl)quinazolin-4-yl)amino)ethyl)-2-methylbenzonitrile]
IC50 (OCI-AML5 cells): 16.8 nM | IC50 (KRAS-G12C/SOS1): 36.7 nM

COc1cc2nc(C)nc(N[C@H](C)c3cccc(C#N)c3C)c2cc1N1CC(C#N)C1 [Compound 12, (R)-1-(4-((1-(3-cyano-2-methylphenyl)ethyl)amino)-7-methoxy-2-methylquinazolin-6-yl)azetidine-3-carbonitrile]
IC50 (OCI-AML5 cells): 23 nM | IC50 (KRAS-G12C/SOS1): 88.4 nM

COc1cc2nc(C)nc(N[C@H](C)c3cccc(C#N)c3C)c2cc1N1CCN(S(C)(=O)=O)CC1 [Compound 13, (R)-3-(1-((7-methoxy-2-methyl-6-(4-(methylsulfonyl)piperazin-1-yl)quinazolin-4-yl)amino)ethyl)-2-methylbenzonitrile]
IC50 (OCI-AML5 cells): 25.4 nM | IC50 (p-ERK1/2 in DLD-1 cells): 73.5 nM

COc1cc2nc(C)nc(N[C@H](C)c3cccc(C#N)c3C)c2cc1N1CCC(N2CCN(C)CC2)CC1 [Compound 15, (R)-3-(1-((7-methoxy-2-methyl-6-(4-(4-methylpiperazin-1-yl)piperidin-1-yl)quinazolin-4-yl)amino)ethyl)-2-methylbenzonitrile]
IC50 (OCI-AML5 cells): 3.7 nM | IC50 (KRAS-G12C/SOS1): 31.7 nM

COc1cc2nc(C)nc(N[C@H](C)c3cccc(C#N)c3C)c2cc1N1CCC2(CC1)CN(S(C)(=O)=O)C2 [Compound 16, (R)-3-(1-((7-methoxy-2-methyl-6-(2-(methylsulfonyl)-2,7-diazaspiro[3.5]nonan-7-yl)quinazolin-4-yl)amino)ethyl)-2-methylbenzonitrile]
IC50 (KRAS-G12C/SOS1): 54.3 nM

COc1cc2nc(C)nc(N[C@H](C)c3cccc(C#N)c3C)c2cc1N1CCC2(CC1)CNC2 [Compound 16c, (R)-3-(1-((7-methoxy-2-methyl-6-(2,7-diazaspiro[3.5]nonan-7-yl)quinazolin-4-yl)amino)ethyl)-2-methylbenzonitrile]
IC50 (OCI-AML5 cells): 13.1 nM | IC50 (KRAS-G12C/SOS1): 20.3 nM

COc1cc2nc(C)nc(N[C@H](C)c3cccc(C#N)c3C)c2cc1N1CCC(OC)CC1 [Compound 17, (R)-3-(1-((7-methoxy-6-(4-methoxypiperidin-1-yl)-2-methylquinazolin-4-yl)amino)ethyl)-2-methylbenzonitrile]
IC50 (OCI-AML5 cells): 10.6 nM | IC50 (p-ERK1/2 in DLD-1 cells): 29.2 nM

COc1cc2nc(C)nc(N[C@H](C)c3cccc(C#N)c3C)c2cc1N1CCC(N2CCCC2=O)CC1 [Compound 21, (R)-3-(1-((7-methoxy-2-methyl-6-(4-(2-oxopyrrolidin-1-yl)piperidin-1-yl)quinazolin-4-yl)amino)ethyl)-2-methylbenzonitrile]
IC50 (KRAS-G12C/SOS1): 63.2 nM
